Results reported in patent US9949992B2, “Bisphosphonate compositions and methods for treating and\or reducing cardiac dysfunction” (DUKE UNIVERSITY, priority 2011, dated 2018).

What was measured:
[1] = Hydroxyapatite (HAP) affinity by chromatographic profiling on HAP column; assay type: binding; conditions: phosphate gradient 1 mM to 1000 mM, pH 6.8
[2] = biological target: T1, human farnesyl pyrophosphate synthase (FPPS) (Homo sapiens, UniProt P14324); experiment: FPPS inhibition, in vitro, recombinant enzyme; assay type: biochemical; conditions: GPP and IPP 10 μM each, 37° C., read-out: FFPPS nM IC50
T1 construct: made in house
T1 sequence (P14324 67-419 limits assumed): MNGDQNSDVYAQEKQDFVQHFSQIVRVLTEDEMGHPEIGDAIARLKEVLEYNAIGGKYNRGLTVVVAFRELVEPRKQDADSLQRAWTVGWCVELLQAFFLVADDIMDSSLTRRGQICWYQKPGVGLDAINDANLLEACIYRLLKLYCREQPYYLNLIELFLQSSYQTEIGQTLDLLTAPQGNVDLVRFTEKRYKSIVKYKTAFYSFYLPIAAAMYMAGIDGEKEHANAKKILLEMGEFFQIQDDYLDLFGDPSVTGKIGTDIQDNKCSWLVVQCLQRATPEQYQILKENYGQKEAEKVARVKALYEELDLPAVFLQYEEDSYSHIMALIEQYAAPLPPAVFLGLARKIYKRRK

ERK = experiment: Expression and activation (phosphorylation) of ERK in myocardial tissue, SHAM or TAC mice, immunoblot and densitometry; assay type: in vivo, mouse

SMILES: O=P(O)(O)C(O)(Cc1cnc2ccccn12)P(=O)(O)O [Minodronate]
- HAP mineral binding (retention time in mins) [1]: 10.33 min

SMILES: CCCCCN(C)CCC(O)(P(=O)(O)O)P(=O)(O)O [Ibandronate]
- HAP mineral binding (retention time in mins) [1]: ~11 min

SMILES: O=P(O)(O)C(O)(Cc1cccnc1)P(=O)(O)O [Risedronate]
- HAP mineral binding (retention time in mins) [1]: 9.97 min

SMILES: O=P(O)(O)C(F)(Cc1cnc2ccccn12)P(=O)(O)O [Ox-14, 1-fluoro-2-(imidazo-[1,2-a]pyridine-3-yl)-ethyl-bisphosphonic acid]
- HAP mineral binding (retention time in mins) [1]: 6.17 min
- IC50 [2]: 2.5 nM
- level of expression of ERK (ERK; SHAM animals, FIG. 1, myocardial lysate, subcutaneous dosing): did not change
- phosphorylation of ERK (ERK; SHAM animals, FIG. 1 and FIG. 2, myocardial lysate): not as evident
- pERK/tERK ratio, fold increase (ERK; SHAM group, with respect to saline treated SHAM animals, FIG. 3): ~3 fold
- level of phosphorylation of ERK (ERK; TAC conditioned animals, FIG. 2): substantial increase
- pERK/tERK ratio, fold increase (ERK; TAC group relative to saline SHAM group, FIG. 3): ~5 fold
- pERK/tERK activity relative to zoledronic acid administered TAC group (ERK; TAC group, FIG. 3): about double
